Patent US20030186890A1, “Amphipathic linear peptides and formulations containing said peptides” (SYNT:EM S.A., priority 2000, published 2003)
“And” between values parts separate entries of the source, which are not always exact repeats. Equal values may be shown once.

Assays:
[1] = test system: K562 cells; assay: Cell penetration of NBD-labelled peptides by flow cytometry (FACS); format: cell-based; details: for penetration (mean fluorescent intensity): NBD-labelled peptide 1 μM, 37° C.; for penetration relative to that of SynB1: at 60 min; for penetration compared with the reference peptide (in words): irrespective of the time interval
Description: Cell penetration of the peptides was studied by flow cytometry. The K562 cells were cultured in RPMI medium with 10% foetal calf serum. The cells were diluted to 0.3×10^6 cells per ml 24 hours before the experiment. The cell penetration was measured by flow cytometry using a FACScan (Becton Dickinson, USA). The peptides labelled with NBD (final concentration 1 μM) were incubated with the K562 cells (5×10^5 cells per ml) in Optimem medium at 37° C. for variable periods (the final volume was 0.5 ml). After incubation, the cells were washed twice and then resuspended in 0.5 ml of cold PBS. The penetration was then analysed by FACS. The fluorophors were excited at 488 nm and the fluorescence measured at 525 nm. A histogram of the fluorescent intensity (for 1×10^4 cells) was obtained and the mean distribution considered to be representative of the quantity of peptide associated with the cells.

[2] = mouse, in vivo

| Substance | penetration (mean fluorescent intensity) ([1]; Time 0 min) | penetration (mean fluorescent intensity) ([1]; Time 5 min) | penetration (mean fluorescent intensity) ([1]; Time 10 min) | penetration (mean fluorescent intensity) ([1]; Time 30 min) | penetration (mean fluorescent intensity) ([1]; Time 60 min) | penetration relative to that of SynB1 [1] [times] | penetration compared with the reference peptide (in words) [1] | increase of passage into the brain (influx constant Kin) versus doxorubicin alone [2] [times] |
| --- | --- | --- | --- | --- | --- | --- | --- | --- |
| R G G R L S Y S R R R F S T S T G R (RGGRLSYSRRRFSTSTGR) [SynB1, reference compound] | 4 | 7 | 7 | 8 | 12 |  |  |  |
| R L R W R L R Y R F (RLRWRLRYRF) [SM4291] | 4.5 | 91 | 99 | 107 | 118 |  |  |  |
| R R L S Y S R R R F (RRLSYSRRRF) [SynB3, reference compound] | 4 and 4.5 | 9.5 and 12 | 10 and 13 | 12 and 15 | 16 and 23 |  |  |  |
| RKLWYLRKRF [SM4293] | 4.5 | 20 | 23 | 29 | 31 |  |  |  |
| R G G R L A Y L R R R W A V L V G R (RGGRLAYLRRRWAVLVGR) [SM3979] | 4 | 75 | 95 | 100 | 114 | 9 | penetrate much more effectively |  |
| R R L W R L L R R F (RRLWRLLRRF) [SM4290] | 4 | 147 | 168 | 366 | 371 |  |  |  |
| R R L W Y L R R R F (RRLWYLRRRF) [SM4287] | 4 | 29 | 34 | 50 | 60 |  |  |  |
| Doxo-(RGGRLSYSCitCitCitFSTSTGR) [Doxo-SynB1/3Cit] |  |  |  |  |  |  |  | 20 |
| R R L W R L Y R R F (RRLWRLYRRF) [SM4289] | 4 | 63 | 80 | 107 | 135 |  |  |  |
| R R L W L L R R R F (RRLWLLRRRF) [SM4288] | 4 | 33 | 38 | 53 | 61 |  |  |  |
| R L R W R L R L R F (RLRWRLRLRF) [SM4292] | 4.5 | 140 | 140 | 141 | 146 |  |  |  |
| R G G R L V Y V R R R W V V V V G R (RGGRLVYVRRRWVVVVGR) [SM3980] | 4 | 34 | 42 | 54 | 62 | 5 | penetrate much more effectively |  |
